In article PMC7238114, “L-Type Amino Acid Transporter 1-Utilizing Prodrugs of Ketoprofen Can Efficiently Reduce Brain Prostaglandin Levels” (Pharmaceutics, 2020):

What follows are molecules tested on cyclooxygenase (COX; isoform not resolved, COX1/COX2) (assay: fluorometric COX peroxidase activity assay (Amplex Red) in BV2 cell lysate).
Format: biochemical

| IC50 [nM] | SMILES |
| --- | --- |
| 1050 ± 1210 | CC(C(=O)NCCCC[C@H](N)C(=O)O)c1cccc(C(=O)c2ccccc2)c1 (stereo partly drawn) [PD2, pro-drug 2] |
| 2260 ± 1330 | CC(C(=O)NCC[C@H](N)C(=O)O)c1cccc(C(=O)c2ccccc2)c1 (stereo partly drawn) [PD3, pro-drug 3] |

| SMILES | IC50 [nM] |
| --- | --- |
| CC(C(=O)O)c1cccc(C(=O)c2ccccc2)c1 (stereo not drawn) [KPF, ketoprofen] | 850 ± 1180 |
